Experimental findings from article PMC12035805, “A Water-Soluble Aggregation-Induced Emission Photosensitizer with Intrinsic Antibacterial Activity as an Antiplanktonic and Antibiofilm Therapeutic Agent” (Journal of Medicinal Chemistry, 2025) are described below.

One data set concerns human erythrocytes. Nature of the data set: Hemolysis of human erythrocytes. Format: cell-based. Here is the method: (§1) The human erythrocyte concentrate was prepared according to the kit manual from the Biomaterial Hemolytic Assay Kit (Hemoscan). After the human erythrocytes had been washed and diluted with manufacture buffer, 100 μL of erythrocytes (10%) were added into 100 μL of various concentrations of compounds in PBS. 1% of Triton X (1%) was the positive control, while PBS was the negative control. The erythrocytes were then gently mixed with the TPA compounds and further incubated for an hour at 37 °C. After that, the erythrocytes were centrifuged (1000 rpm, 5 min), and 20 μL of supernatant was added to 180 μL of PBS in a 96-well plate. The optical density at 380, 415, and 450 nm was measured by a plate reader. The final OD value of the compounds was calculated as (2 × OD415) – (OD450 + OD380) where OD380, OD415, and OD450 are the optical density of the solution at 380, 415, and 450 nm, respectively. The hemolysis rates of the compounds were calculated as (ODcompound – ODPBS)/(ODTritonX – ODPBS) × 100% where ODcompound, ODPBS, and ODTritonX are the final OD values of the erythrocytes mixed with TPA compounds, PBS, and 1% Triton X, respectively. The experiment was performed in triplicate.

The nature of data set [1]: Hemolysis of human erythrocytes. Format: cell-based. The conditions noted are these: 200 μM compound, 1 h, 37 °C. The procedure:
as §1

Another data set addresses T1, S. aureus DNA gyrase (Staphylococcus aureus, UniProt P0A0K8+P20831).
T1 construct: purchased Inspiralis
Nature of the data set: S. aureus DNA gyrase supercoiling inhibition assay. The conditions noted are these: relaxed pBR322, 37 °C, 30 min, agarose gel. Format: biochemical. The procedure: The assay was conducted using an S. aureus gyrase supercoiling assay kit from Inspiralis. In general, relaxed bacterial plasmid (pBR322), S. aureus gyrase, and different concentrations of TPA-1 were mixed and incubated at 37 °C for 30 min. The mixtures were then quenched and subjected to electrophoresis (1% agarose gel, 75 V, 2 h). The gel image was captured with the Bio-Rad ChemiDoc imaging system.

A short description of data set [2]: Log P, 1-octanol/water partition. Format: physicochemical. The conditions noted are these: 1-octanol/water (1:1). Here is the method: The log P values of TPA compounds were obtained according to previously reported methods.[66] 1-octanol was first presaturated with water. Equal volume and concentration of TPA-NC-1, TPA-0, and TPA-1 were added to a 1-octanol/water (1:1) mixture and vortexed for 1 min. The mixture was then centrifuged for 5 min at 13,500 rpm. After that, the absorptions of the compound in the 1-octanol and water phases were measured. The concentrations of the compound in both phases were calculated by using the absorption calibration curve of the corresponding compound. Log P = log (concentration of the compound in 1-octanol/concentration of the compound in water).

The nature of data set [3]: Light toxicity on HFF-1 cells (MTT after PDT). Format: cell-based. Particulars: human, 600 nm light irradiation for 45 min. Here is the method:
HFF-1 cells were seeded in a 96-well plate with a density of 10,000 cells/well for 12 h at 37 °C in darkness. Different concentrations of TPA-1 were added to the cell culture medium and incubated for 20 min at 37 °C in darkness. The cells were then incubated in the dark or irradiated by 600 nm light for 45 min. The cell viability was then evaluated using the MTT assay, which was described in the cytotoxicity assay.

A further data set has as its system MRSA (ATCC 43300). Nature of the data set: Wound infection mouse model, MRSA biofilm. Format: in vivo. Particulars: mice, topical 90 μM, 600 nm 15 min, every 24 h for 4 days (TPA-1 + L). Here is the method:
All in vivo experiments were approved by the Department of Science and Technology of Zhejiang Province (SYXK(Zhejiang)2021-0043). Female BALB/c mice (10–12 weeks old) were kept in 12 h light and 12 h dark cycle with access to free food and water for 7 days before and throughout the experiment. The backs of the mice were shaved and disinfected with iodine. A full-thickness circular wound (7 mm in diameter) was then created at the back of the mice. The mice were allowed to recover for 24 h after surgery to prevent sepsis.[65] Ten μL of 1× 10^8 CFU/mL MRSA (ATCC 43300) or P. aeruginosa (ATCC 27853) in saline was added to the wound. The wound was covered with an adhesive dressing for 24 h of infection. Next, the mice were randomly divided into four groups: (1) 50 μL TPA-1 (90 μM) with 600 nm light irradiation (60 mW/cm^2) for 15 min, (2) 50 μL TPA-1 (90 μM) in dark, (3) 50 μL saline with 600 nm light irradiation (60 mW/cm^2) for 15 min, and (4) 50 μL saline in dark. For light irradiation groups, TPA-1 and saline were incubated on the wound for 10 min before irradiation. The treatment was sustained for 4 days. The wound size and body weight of the mice were recorded every day. On day 6, the mice were euthanatized, and the wound tissue was collected. […] The other half of the tissue was homogenized, and the number of viable bacteria was measured by the plate counting method.

T1 sequence (P20831 whole entry): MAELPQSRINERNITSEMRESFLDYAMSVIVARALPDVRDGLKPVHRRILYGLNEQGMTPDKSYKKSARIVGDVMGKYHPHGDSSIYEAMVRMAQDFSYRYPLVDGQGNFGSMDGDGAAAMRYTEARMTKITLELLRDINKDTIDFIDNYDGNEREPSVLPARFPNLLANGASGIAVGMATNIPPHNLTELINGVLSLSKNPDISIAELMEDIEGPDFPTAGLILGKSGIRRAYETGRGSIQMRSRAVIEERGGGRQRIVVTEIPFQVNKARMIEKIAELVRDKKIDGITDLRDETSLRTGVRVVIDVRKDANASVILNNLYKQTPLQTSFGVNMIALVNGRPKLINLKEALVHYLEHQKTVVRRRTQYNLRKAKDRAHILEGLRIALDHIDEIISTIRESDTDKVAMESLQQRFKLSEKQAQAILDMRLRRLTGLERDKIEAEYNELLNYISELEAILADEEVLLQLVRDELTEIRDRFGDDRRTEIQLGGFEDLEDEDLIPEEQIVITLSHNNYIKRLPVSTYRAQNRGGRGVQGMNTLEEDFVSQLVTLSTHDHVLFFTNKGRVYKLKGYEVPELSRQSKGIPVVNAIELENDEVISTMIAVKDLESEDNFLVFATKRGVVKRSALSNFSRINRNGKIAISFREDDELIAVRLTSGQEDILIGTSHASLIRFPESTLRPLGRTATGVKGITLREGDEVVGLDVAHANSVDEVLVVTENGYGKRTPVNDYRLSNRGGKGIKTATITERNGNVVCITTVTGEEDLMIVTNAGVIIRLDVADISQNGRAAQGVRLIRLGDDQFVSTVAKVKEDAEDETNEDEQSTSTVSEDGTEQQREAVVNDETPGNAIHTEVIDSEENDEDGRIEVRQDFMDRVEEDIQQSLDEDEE
T1 sequence (P0A0K8 whole entry): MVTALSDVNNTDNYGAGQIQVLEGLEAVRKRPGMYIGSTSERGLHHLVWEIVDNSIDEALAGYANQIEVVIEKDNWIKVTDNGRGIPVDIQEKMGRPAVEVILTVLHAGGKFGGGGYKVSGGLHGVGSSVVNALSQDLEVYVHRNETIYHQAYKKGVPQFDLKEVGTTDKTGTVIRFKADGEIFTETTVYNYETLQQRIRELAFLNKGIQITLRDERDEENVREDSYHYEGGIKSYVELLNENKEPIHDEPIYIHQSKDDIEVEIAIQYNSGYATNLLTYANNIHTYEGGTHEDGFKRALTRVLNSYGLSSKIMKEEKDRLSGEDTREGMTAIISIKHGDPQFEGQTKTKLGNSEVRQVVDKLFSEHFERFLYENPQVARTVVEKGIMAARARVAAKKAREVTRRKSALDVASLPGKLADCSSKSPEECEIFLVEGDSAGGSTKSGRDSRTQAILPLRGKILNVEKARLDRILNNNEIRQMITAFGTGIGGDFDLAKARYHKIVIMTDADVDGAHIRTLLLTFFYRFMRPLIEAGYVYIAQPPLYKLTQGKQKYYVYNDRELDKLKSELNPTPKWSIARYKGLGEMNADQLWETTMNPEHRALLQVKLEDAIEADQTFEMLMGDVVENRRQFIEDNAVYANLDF

`C#CCC[n+]1c(/C=C/c2ccc(-c3ccc(N(c4ccc(OCCC[N+](C)(C)C)cc4)c4ccc(OCCC[N+](C)(C)C)cc4)cc3)s2)sc2ccccc21.[Br-].[Br-].[Br-]` [TPA-1]: the 50% haemolytic concentration (HC50) with human erythrocytes is greater than 200 µM. In data set [1], the hemolysis at 1 h, 200 µM is less than 2%. The “concentration at which the supercoiled DNA band completely disappears” value on S. aureus DNA gyrase is 25 µM. The log partition coefficient (logP) in data set [2] was -1.6. Moreover, the viability at 45 min, 40 µM in data set [3] is greater than 90%. Further, in the data set with MRSA (ATCC 43300), the “MRSA eradicated in infected tissues” value is 96% ± 3% and the “MRSA log (CFU/mg tissue) reduction” value is listed as 1.4 ± 0.6 log (CFU/mg tissue).
